Laboratory results taken from the supplement of paper PMC10307832.

Columns and labels:
Assay in all cases: relative viability (nuclei count vs DMSO), 5 days (fraction); higher = more cells survive
Pazopanib + Pemetrexed = compound: Cc1ccc(Nc2nccc(N(C)c3ccc4c(C)n(C)nc4c3)n2)cc1S(N)(=O)=O [Pazopanib] + Nc1nc2[nH]cc(CCc3ccc(C(=O)N[C@@H](CCC(=O)O)C(=O)O)cc3)c2c(=O)[nH]1 [Pemetrexed] (partner 0.2 µM)
In short: (§1)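 Lung cancer cell lines in 1536-well plates were dosed by pin tool the day after seeding, either with one drug alone or with a fixed anchor-drug dose plus five library-drug doses (not always all listed) in √10 steps. After 5 days, cells were fixed and their nuclei stained in one step (final 0.05% Triton X-100, 1% formaldehyde, 1 ug/ml Hoechst), then counted on 4× images. Relative viability is the nuclei count in treated wells divided by that in vehicle wells. Values are medians of duplicate plates.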

Ponatinib + OSI-027 = compound: Cc1ccc(C(=O)Nc2ccc(CN3CCN(C)CC3)c(C(F)(F)F)c2)cc1C#Cc1cnc2cccnn12 [Ponatinib] + COc1cccc2cc(-c3nc([C@H]4CC[C@H](C(=O)O)CC4)n4ncnc(N)c34)[nH]c12 [OSI-027] (partner 0.5 µM)
In short: as §1

Pazopanib = compound: Cc1ccc(Nc2nccc(N(C)c3ccc4c(C)n(C)nc4c3)n2)cc1S(N)(=O)=O [Pazopanib]
In short: (§2)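 In 1536-well plates, lung cancer cell lines rested overnight at 37 °C before five library-drug doses (not always all listed), √10 apart, were pinned onto vehicle-anchored plates. Nuclei were counted with MetaXpress from 4× Hoechst images taken after 5 days without medium change. Viability compares treated-well with vehicle-well nuclei as a median over plates, and plates needed control CV below 25% plus at least one doubling to pass.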

Ponatinib = compound: Cc1ccc(C(=O)Nc2ccc(CN3CCN(C)CC3)c(C(F)(F)F)c2)cc1C#Cc1cnc2cccnn12 [Ponatinib]
In short: as §2

| Cell Line | relative viability (Pazopanib + Pemetrexed; first compound 0.01 µM) | relative viability (Pazopanib + Pemetrexed; first compound 0.03162 µM) | relative viability (Pazopanib + Pemetrexed; first compound 0.1 µM) | relative viability (Pazopanib + Pemetrexed; first compound 0.3162 µM) | relative viability (Pazopanib + Pemetrexed; first compound 1 µM) | relative viability (Ponatinib + OSI-027; first compound 0.002 µM) | relative viability (Ponatinib + OSI-027; first compound 0.006325 µM) | relative viability (Ponatinib + OSI-027; first compound 0.06325 µM) | relative viability (Ponatinib + OSI-027; first compound 0.2 µM) | relative viability (Pazopanib; 0.01 µM) | relative viability (Pazopanib; 0.03162 µM) | relative viability (Pazopanib; 0.1 µM) | relative viability (Pazopanib; 0.3162 µM) | relative viability (Pazopanib; 1 µM) | relative viability (Ponatinib; 0.002 µM) | relative viability (Ponatinib; 0.006325 µM) | relative viability (Ponatinib; 0.06325 µM) | relative viability (Ponatinib; 0.2 µM) |
| --- | --- | --- | --- | --- | --- | --- | --- | --- | --- | --- | --- | --- | --- | --- | --- | --- | --- | --- |
| SK-MES-1 | 0.91 | 0.981 | 0.961 | 0.924 | 0.985 | 0.566 | 0.653 | 0.717 | 0.537 | 0.946 | 0.987 | 1.04 | 1.05 | 1.05 | 0.944 | 1.06 | 1.15 | 1 |
| SW 900 | 0.512 | 0.504 |  | 0.494 | 0.5 | 0.465 | 0.575 | 0.623 | 0.577 | 0.796 | 0.902 | 0.762 | 1.12 | 1.2 | 0.817 | 0.783 | 0.889 | 0.794 |
| SW 1573 | 0.831 | 0.899 | 0.792 | 0.857 | 0.861 | 0.567 | 0.483 | 0.718 | 0.522 | 0.948 | 1.02 | 1.07 | 1.2 | 1.13 | 0.961 | 0.955 | 1.06 | 0.897 |
